Experimental data taken from BindingDB's records for doi:10.1016/0960-894X(95)00347-V (1995).

Key:
[1] = Inhibition of porcine Pancreatic elastase with 10 min pre-incubation
[2] = Inhibition of porcine Pancreatic elastase without pre-incubation
[3] = as above; remark: listed apart in the source
[4] = as above; remark: listed apart in the source

IC50 [1] [µM] | IC50 [2] [µM] | IC50 [3] [µM] | IC50 [4] [µM] | SMILES
0.49 | 2.1 | – | – | Cc1ccc(S(=O)(=O)O[C@H]2C(=O)N3[C@@H](C(=O)OCOC(=O)C(C)(C)C)C(C)(C)S(=O)(=O)[C@H]23)cc1 [(2S,5R,6S)-3,3-Dimethyl-4,4,7-trioxo-6-(toluene-4-sulfonyloxy)-4lambda*6*-thia-1-aza-bicyclo[3.2.0]heptane-2-carboxylic acid 2,2-dimethyl-propionyloxymethyl ester]
– | – | 23 | 0.15 | Cc1ccc(S(=O)(=O)O[C@H]2C(=O)N3[C@@H](C(=O)OCc4ccccc4)C(C)(C)S(=O)(=O)[C@H]23)cc1 [(2S,5R,6S)-3,3-Dimethyl-4,4,7-trioxo-6-(toluene-4-sulfonyloxy)-4lambda*6*-thia-1-aza-bicyclo[3.2.0]heptane-2-carboxylic acid benzyl ester]
– | 1 | – | – | CC(C)(C)C(=O)OCOC(=O)[C@@H]1N2C(=O)[C@H](OS(=O)(=O)C(F)(F)F)[C@H]2S(=O)(=O)C1(C)C [(2S,5R,6S)-3,3-Dimethyl-4,4,7-trioxo-6-trifluoromethanesulfonyloxy-4lambda*6*-thia-1-aza-bicyclo[3.2.0]heptane-2-carboxylic acid 2,2-dimethyl-propionyloxymethyl ester]
– | 0.68 | – | – | CC1(C)[C@H](C(=O)OCc2ccccc2)N2C(=O)[C@H](OS(=O)(=O)C(F)(F)F)[C@H]2S1(=O)=O [(2S,5R,6S)-3,3-Dimethyl-4,4,7-trioxo-6-trifluoromethanesulfonyloxy-4lambda*6*-thia-1-aza-bicyclo[3.2.0]heptane-2-carboxylic acid benzyl ester]
– | – | 280 | 220 | CC(C)(C)C(=O)OCOC(=O)[C@@H]1N2C(=O)[C@H](Cl)[C@H]2S(=O)(=O)C1(C)C [(2S,5R,6S)-6-Chloro-3,3-dimethyl-4,4,7-trioxo-4lambda*6*-thia-1-aza-bicyclo[3.2.0]heptane-2-carboxylic acid 2,2-dimethyl-propionyloxymethyl ester]
0.54 | 4.3 | – | – | CC(C)(C)C(=O)OCOC(=O)[C@@H]1N2C(=O)[C@H](OS(C)(=O)=O)[C@H]2S(=O)(=O)C1(C)C [(2S,5R,6S)-6-Methanesulfonyloxy-3,3-dimethyl-4,4,7-trioxo-4lambda*6*-thia-1-aza-bicyclo[3.2.0]heptane-2-carboxylic acid 2,2-dimethyl-propionyloxymethyl ester]
– | – | 2.2 | 0.13 | CC1(C)[C@H](C(=O)OCc2ccccc2)N2C(=O)[C@H](OS(C)(=O)=O)[C@H]2S1(=O)=O [(2S,5R,6S)-6-Methanesulfonyloxy-3,3-dimethyl-4,4,7-trioxo-4lambda*6*-thia-1-aza-bicyclo[3.2.0]heptane-2-carboxylic acid benzyl ester]
